Source: PubChem BioAssay AID720695 (Broad Institute, 2013)
Active and inactive are the calls of the source.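 Rule for the calls: active = compounds lowering Shn3 signal with a fitted half-maximal concentration at most twice the top tested dose; inconclusive = flat curve with 30 to 70% loss, or poor fit; inactive = the rest.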

molecular target: Schnurri-3 (HIVEP3) mRNA; test: reduction of Shn3 mRNA levels, dose response, orthogonal assay for Schnurri-3 inhibitor project, Clone20 cells, qPCR, dry powder (AID 720695); details: overnight

Compound	AC50
COc1cc(CN2CCc3ccccc3C2)ccc1O	6.67 µM
COc1ccc(NC(=O)c2nc(S(=O)(=O)Cc3cccc(C)c3)ncc2Cl)c(OC)c1	8.91 µM
CN(C(=O)COc1ccccc1C(=O)NCCOc1ccccc1)c1ccccc1	26.6 µM
CCCc1nnc(NC(=O)c2nc(S(=O)(=O)Cc3ccc(C)cc3)ncc2Cl)s1	28 µM
CCOC(=O)c1ccc(NC(=O)Cn2ncc(Cl)c(Cl)c2=O)cc1	11.6 µM
O=C(c1nnsc1S(=O)c1ccc(Cl)cc1)N1CCOCC1 (stereo not drawn)	13.7 µM
CC(C)[C@H](NC(=O)OC(C)(C)C)c1nnc(S(=O)(=O)Cc2c(F)cccc2Cl)o1	22.3 µM

same assay, conditions: overnight, at 35 µM (top of the series)

Compound	Shn3 expression, relative signal
CCOC(=O)C1(Cc2ccc(Cl)cc2)CCN(C(C)Cc2ccc(O)c(OC)c2)CC1 (stereo not drawn)	inactive
CCCOc1ccccc1C1CC(=O)Nc2cc3c(cc21)OCO3 (stereo not drawn)	inactive
O=C1CSc2ccc(C(=O)Nc3cccc(S(=O)(=O)Nc4ccc(Br)cc4)c3)cc2N1	inactive
Cc1ccc2cc(CN(CC3CCCO3)C(=O)NC3CCCCC3)c(=O)[nH]c2c1C (stereo not drawn)	inactive
COc1cc2ncnc(N[C@H](C)c3ccccc3)c2cc1OC	inactive
COc1ccccc1N1CCN(c2ncc(C(=O)N3CCN(c4cccc(Cl)c4)CC3)c3ccccc23)CC1	inactive
CCOC(=O)C1CCN(C(=O)c2ccc(OCC(=O)Nc3cccc(C(F)(F)F)c3)c(OC)c2)CC1	inactive
CC(=O)N1CCN(C(=O)CCc2cc(C(C)(C)C)c(O)c(C(C)(C)C)c2)CC1	inactive
Cc1cc2c(cc(C(=O)N3CCC(C(=O)NC4CCCC4)CC3)n2Cc2c(F)cccc2Cl)o1	inactive
Fc1ccc(-n2nnnc2-c2cnc(-c3cccs3)nc2C(F)(F)F)cc1	inactive
CN(C)S(=O)(=O)c1cccc(NC(=O)c2cccc(S(=O)(=O)N3CCc4ccccc43)c2)c1	inactive
CC(=O)Nc1cccc(NC(=O)CSc2ncc(-c3ccc(Cl)cc3)n2Cc2ccco2)c1	inactive
Nc1nonc1C(=O)NCCNCc1cc(Br)ccc1OCc1ccc(F)cc1	inactive
CN(C)c1nc(-c2ccccn2)nnc1-c1ccccc1	inactive
COc1ccc(Nc2nc(N3CCCCC3)c3ccccc3n2)cc1	inactive
COc1ccc2c(c1)c(CC(=O)Nc1cc(C)ccc1C)c(C)n2C(=O)c1ccc(Cl)cc1	inactive
CN(CC(=O)Nc1cccc(S(=O)(=O)N2CCOCC2)c1)CC(=O)Nc1ccc(Cl)c(C(F)(F)F)c1	inactive
Cc1cc(N2CCCC2=O)cc(C)c1S(=O)(=O)NCCOc1ccc(C(C)(C)C)cc1	inactive
O=c1c2ccccc2nc2n1C(CSCc1ccc(Cl)cc1Cl)CS2 (stereo not drawn)	inactive
CC(C)(C)NC(=O)CSc1nc2ccc(NC(=O)CSc3nnnn3Cc3ccccc3)cc2s1	inactive
COc1ccc(NS(=O)(=O)c2ccc(C(=O)N3CCCCCC3)cc2)cc1	inactive
